Experiments:
[1] = system: GABA receptor trafficking; assay: GABA receptor trafficking measured by GABAergic current density; assay type: cell-based
Source text: As shown in above examples, not all neurosteroids can modulate GABA receptor trafficking.

[2] = system: GABAA receptor β3 subunit S408/9; assay: Immunoblot of β3 S408/9 phosphorylation in hippocampal slices; assay type: cell-based, mouse; details: 20 min exposure (100 nM in FIG. 6)
Description: Asterisks represent a significant difference from control (ALLO: p<0.01, Student's t-test, n=10 slices, from 10 mice; SGE-516: p<0.05, Student's t-test, n=4 slices, from 4 mice). […] Asterisks represent a significant difference from control (ALLO: p<0.05, Student's t-test, n=8 slices; SGE-516: p<0.05, Student's t-test, n=4 slices).
Hippocampi were dissected out of acute slices from 8 to 12 week old C57/Bl6 mice and lysed with […] including: 20 mM Tris-HCl, 150 mM NaCl, 5 mM EDTA, 10 mM NaF, 2 mM Na3VO4, 10 mM pyrophosphate, 0.1% SDS and 1% Triton after drug treatment. The β3 subunit was isolated using immunoprecipitation with β3 antibodies, after correction for protein content and the specific activity of labeling. Results were attained by SDS/PAGE followed by autoradiography (Abramian et al., 2010). For biotinylation experiments hippocampi were dissected out of acute slices from 8 to 12 week old C57/Bl6 mice and incubated in artificial cerebrospinal fluid (ACSF) described above at 30° C. for 1 h for recovery before experimentation. Slices were then placed on ice and incubated for 30 min with 1 mg/mL NHS-SS-biotin (Pierce). Excess biotin was removed by a 50 mM glycine quenching buffer, followed by washing of slices three times in ice-cold ACSF. The tissue was snap frozen on dry ice for 5 min, thawed at 4° C. and lysed. The lysates were solubilized with 2% Triton at 4° C. on a rotating wheel for 1 h. The insoluble material was removed by centrifugation, and 350-500 μg of protein lysate were incubated with NeutrAvidin beads (Pierce) for 18-24 h at 4° C. Bound material was eluted with sample buffer and subjected to SDS/PAGE and then immunoblotted with the indicated antibodies. Blots were then quantified using the CCD-based ChemiDoc XRS ? system. Antibodies against the β3 subunit and the phospho-β3 antibody were generated and verified by the laboratory of S.J.M. (Vien et al., 2015).
Treatment of hippocampal slices with SGE-516 increased the phosphorylation of S408/9 measured using pS408/9 antibodies. To produce antibodies specific for phosphorylated S443, rabbits were injected with a synthetic peptide corresponding to residues […] of the murine α4 subunit in which the serine residue corresponding to S443 was chemically phosphorylated; […]. Hippocampal slices were treated with vehicle (Con), or SGE-516 for 20 min. Slices were immunoblotted with pS408/9, β3, or actin antibodies. The ratio of pS408/9/β3 immunoreactivity was then normalized to control slices (100%=the line).
Hippocampal slices were treated with 100 nM ALLO or P4 (progesterone), and S408/9 phosphorylation was then determined as detailed above, n=4 slices (FIG. 18D). Hippocampal slices were treated with 100 nM ORG (FIG. 18E). S408/9 phosphorylation was examined using immunoblotting. […]

[3] = system: dentate gyrus granule cells (DGGCs); assay type: cell-based, mouse; details: for tonic current after exposure and washout: 30-60 min wash, vehicle control 43.9±5.7 pA; for concentration dependence of tonic current after exposure and washout: maximal effects at 1 μM; for tonic current versus vehicle treated slices with PKC inhibitor GFX: GFX 50 μM 15 min, then co-exposure 15 min, ≥30 min washout
Description: Brain slices were prepared from 3- to 5-week-old male C57 mice. Mice were anesthetized with isoflurane, decapitated, and brains were rapidly removed and submerged in ice-cold cutting solution containing (mM): 126 NaCl, 2.5 KCl, 0.5 CaCl2, 2 MgCl2, 26 NaHCO3, 1.25 NaH2PO4, 10 glucose, 1.5 sodium pyruvate, and 3 kynurenic acid. Coronal 310 μm thick slices were cut with the vibratome VT1000S (Leica Microsystems, St Louis, Mo., USA). The slices were then transferred into incubation chamber filled with prewarmed (31-32° C.) oxygenated artificial cerebro-spinal fluid (ACSF) of the following composition (in mM): 126 NaCl, 2.5 KCl, 2 CaCl2, 2 MgCl2, 26 NaHCO3, 1.25 NaH2PO4, 10 glucose, 1.5 sodium pyruvate, 1 glutamine, 3 kynurenic acid and 0.005 GABA bubbled with 95% O2-5% CO2. Slices were allowed to recover at 32° C. for at least 1 hr before recording. Exogenous GABA was added in an attempt to standardize ambient GABA in the slice and provide an agonist source for newly inserted extrasynaptic GABAARs.
After recovery, a single slice was transferred to a submerged, dual perfusion recording chamber (Warner Instruments, Hamden, Conn., USA) on the stage of an upright microscope (Nikon FN-1) with a 40× water immersion objective equipped with DIC/IR optics. Slices were maintained at 32° C. and gravity-superfused with ACSF solution throughout experimentation and perfused at rate of 2 ml/min with oxygenated (O2/CO2 95/5%) ACSF.
Whole-cell currents were recorded from the dentate gyrus granule cells (DGGCs) in 310-μm-thick coronal hippocampal slices. Patch pipettes (5-7MΩ) were pulled from borosilicate glass (World Precision Instruments) and filled with intracellular solution of the composition (in mM) as follows: 140 CsCl, 1 MgCl2, 0.1 EGTA, 10 HEPES, 2 Mg-ATP, 4 NaCl and 0.3 Na-GTP (pH=7.2 with CsOH). A 5 min period for stabilization after obtaining the whole-cell recording conformation (holding potential of −60 mV) was allowed before currents were recorded using an Axopatch 200B amplifier (Molecular Devices), low-pass filtered at 2 kHz, digitized at 20 kHz (Digidata 1440A; Molecular Devices), and stored for offline analysis.
For tonic current measurements, an all-points histogram was plotted for a 10 s period before and during 100 μM picrotoxin application, once the response reached a plateau level. Recordings with unstable baselines were discarded. Fitting the histogram with a Gaussian distribution gave the mean baseline current amplitude and the difference between the amplitudes before and during picrotoxin was considered to be the tonic current. The negative section of the all-points histogram which corresponds to the inward IPSCs was not fitted with a Gaussian distribution (Kretschmannova et al., 2013; Nusser and Mody, 2002). Series resistance and whole-cell capacitance were continually monitored and compensated throughout the course of the experiment. Recordings were eliminated from data analysis if series resistance increased by >20%. Spontaneous inhibitory post-synaptic currents (sIPSCs) were analyzed using the mini-analysis software (version 5.6.4; Synaptosoft, Decatur, Ga.). Minimum threshold detection was set to 3 times the value of baseline noise signal. To assess sIPSC kinetics, the recording trace was visually inspected and only events with a stable baseline, sharp rising phase, and single peak were used to negate artifacts due to event summation. Only recordings with a minimum of 200 events fitting these criteria were analyzed. sIPSCs amplitude, and frequency from each experimental condition was pooled and expressed as mean±SEM. To measure sIPSC decay, 100 consecutive events were averaged and the decay was fitted to a double exponential and the weighted decay constant (tw) was determined. Statistical analysis was performed by using Student t-test (paired and unpaired where appropriate), where p<0.05 is considered significant.

Compound	modulation of GABA receptor trafficking [1]	β3 S408/409 phosphorylation in hippocampal slices [2]	tonic current after 100 nM exposure and washout, WT slices [3]	tonic current after exposure and washout ([3]; 1 μM, 15 min incubation) [pA]	concentration dependence of tonic current after exposure and washout ([3]; 15 min incubation, wash)	tonic current versus vehicle treated slices with PKC inhibitor GFX [3]	magnitude of tonic current versus control ([3]; 1 μM, 15 min incubation, wash)
C[C@@]1(O)CC[C@@]2(C)[C@H](CC[C@@H]3[C@@H]2CC[C@]2(C)[C@@H](C(=O)Cn4nccn4)CC[C@@H]32)C1 [SGE-516]	modulated	increases	significant increased	123.0±22.2	concentration-dependent increase	no significant difference	
CC(=O)[C@H]1CC[C@H]2[C@@H]3CC[C@H]4C[C@H](O)CC[C@]4(C)[C@H]3CC[C@]12C [ALLO, Allopregnanolone]	modulated	increases	significant increase	95.8±10.8	concentration-dependent increase	no significant difference	
CC(=O)[C@H]1CC[C@H]2[C@@H]3CC[C@H]4C[C@](C)(O)CC[C@]4(C)[C@H]3CC[C@]12C [Ganaxolone]	did not modulate			57.4±6.3			did not significantly alter

From patent publication US20230116196A1, “METHOD OF TREATING CNS DISORDERS WITH NEU[…] GABAERGIC COMPOUNDS” (priority 2017, published 2023)
